Reference: patent US12643887B2, “Heterocyclic derivatives with cardiomyocyte proliferation activity for treatment of heart diseases” (Tongji University, priority 2019, dated 2026)

What was measured:
Assay type in all cases: biochemical
human DYRK1A = target: T1, human DYRK1A (Homo sapiens, UniProt Q13627); test: DYRK1A enzyme assay (ADP-Glo); settings: ADP-Glo, ATP 60 μM; read-out: DYRK1A IC50
T1 construct: Recombinant full-length DYRK1A (expressed in E. Coli cells with an N-terminal GST tag); GST (N); purchased SignalChem D09-10G; host or cells: E. coli
Protocol: The ability of compounds to inhibit human DYRK1A kinase activities was determined using a commercially available ADP-Glo™ Kinase Assay kit (Promega, Cat #V9102) according to the manufacturer's protocol.
Recombinant full-length DYRK1A (expressed in E. Coli cells with an N-terminal GST tag) was purchased from SignalChem (Cat #D09-10G). The DYRK substrate peptide (DYRKtide, sequence: […]) was purchased from SignalChem (Cat #D96-58). This assay, run in a 384-well plate format, is a generic method for measuring kinase activities using an ADP-Glo Kinase Assay Kit. The basic assay procedure involves two steps: (1) Enzymatic step: inhibitors are incubated with the kinase and then ATP (included in the ADP-Glo Kinase Assay Kit) and the DYRKtide are added to start the enzymatic reaction; (2) Detection step: after the kinase reaction, first ADP-Glo™ Reagent is added to terminate the kinase reaction and deplete the remaining ATP. Second, the Kinase Detection Reagent is added to simultaneously convert ADP to ATP and allow the newly synthesized ATP to be measured using a luciferase/luciferin reaction. The light generated is measured using a luminometer.
(§1) Briefly, DYRK1A (3 nM) in the enzymatic buffer solutions (40 mM Tris, pH 7.5, 20 mM MgCl2, 0.1 mg/ml BSA, 50 μM DTT) were mixed with various concentrations of inhibitors (dissolved in 100% DMSO). These solutions were incubated for 30 minutes at 25° C., and subsequently a mixture of substrate peptide and ATP was added with the final peptide and ATP concentrations at 20 μM and 60 μM, respectively. The final reaction mixture of enzyme-substrate-ATP-compound was incubated for 60 minutes at 25° C.
(§2) Afterwards ADP-Glo™ Reagent was added and the mixture was incubated at 25° C. for 60 minutes. Then Kinase Detection Reagent was added and the final mixture was incubated at 25° C. for 60 minutes. The luminescence signal of the final solution was measured on an Envision instrument (PerkinElmer). The percent (%) inhibition at each concentration of a compound is calculated relative to the luminescence signal in the Max and Min control wells contained within each assay plate. […] The concentrations and percent inhibition values for a test compound are plotted and the concentration of the compound required to achieve 50% inhibition (IC50) is determined with a four-parameter logistic dose response equation.

human CLK1 = target: T2, human CLK1 (Homo sapiens, UniProt P49759); test: CLK1 enzyme assay (ADP-Glo); settings: ADP-Glo, ATP 10 μM; read-out: CLK1 IC50
T2 construct: Recombinant human CLK1 (129-end); GST (N); purchased SignalChem C57-11G; host or cells: Sf9 insect cells
Protocol: The ability of compounds to inhibit human CLK1 kinase activities was determined using a commercially available ADP-Glo™ Kinase Assay kit (Promega, Cat #V9102) according to the manufacturer's protocol.
(§3) Recombinant human CLK1 (129-end) (expressed in Sf9 insect cells with an N-terminal GST tag) was purchased from SignalChem (Cat #C57-11G). Recombinant full length human MBP (expressed in E. Coli cells with an N-terminal GST tag.) was purchased from SignalChem (Cat #M42-54G). This assay, run in a 384-well plate format, is a generic method for measuring kinase activities using an ADP-Glo Kinase Assay Kit. The basic assay procedure involves two steps: (1) Enzymatic step: inhibitors are incubated with the kinase and then ATP (included in the ADP-Glo Kinase Assay Kit) and the MBP protein are added to start the enzymatic reaction; (2) Detection step: after the kinase reaction, first ADP-Glo™ Reagent is added to terminate the kinase reaction and deplete the remaining ATP. Second, the Kinase Detection Reagent is added to simultaneously convert ADP to ATP and allow the newly synthesized ATP to be measured using a luciferase/luciferin reaction. The light generated is measured using a luminometer.
as §1, with “Briefly, CLK1 (16” for “Briefly, DYRK1A (3”, “at 2” for “at 20”, “and 10” for “and 60”
as §2

human HIPK2 = target: T3, human HIPK2 (Homo sapiens, UniProt Q9H2X6); test: HIPK2 enzyme assay (ADP-Glo); settings: ADP-Glo, ATP 5 μM; read-out: HIPK2 IC50
T3 construct: Recombinant human HIPK2 (1-640); GST (N); purchased SignalChem H04-11BG; host or cells: Sf9 insect cells
Protocol: The ability of compounds to inhibit human HIPK2 kinase activities was determined using a commercially available ADP-Glo™ Kinase Assay kit (Promega, Cat #V9102) according to the manufacturer's protocol.
as §3, with “HIPK2 (1-640)” for “CLK1 (129-end)”, “#H04-11BG).” for “#C57-11G).”, “tag)” for “tag.)”
as §1, with “Briefly, HIPK2 (1” for “Briefly, DYRK1A (3”, “at 0.05 mg/ml” for “at 20 μM”, “and 5” for “and 60”, “for 90” for “for 60”
Afterwards ADP-Glo™ Reagent was added and the mixture was incubated at 25° C. for 60 minutes. Then Kinase Detection Reagent was added, and the final mixture was incubated at 25° C. for 60 minutes. The luminescence signal of the final solution was measured on an Envision instrument (PerkinElmer). The percent (%) inhibition at each concentration of a compound is calculated relative to the luminescence signal in the Max and Min control wells contained within each assay plate. […] The concentrations and percent inhibition values for a test compound are plotted and the concentration of the compound required to achieve 50% inhibition (IC50) is determined with a four-parameter logistic dose response equation.

T2 sequence (P49759 129-484 limits assumed): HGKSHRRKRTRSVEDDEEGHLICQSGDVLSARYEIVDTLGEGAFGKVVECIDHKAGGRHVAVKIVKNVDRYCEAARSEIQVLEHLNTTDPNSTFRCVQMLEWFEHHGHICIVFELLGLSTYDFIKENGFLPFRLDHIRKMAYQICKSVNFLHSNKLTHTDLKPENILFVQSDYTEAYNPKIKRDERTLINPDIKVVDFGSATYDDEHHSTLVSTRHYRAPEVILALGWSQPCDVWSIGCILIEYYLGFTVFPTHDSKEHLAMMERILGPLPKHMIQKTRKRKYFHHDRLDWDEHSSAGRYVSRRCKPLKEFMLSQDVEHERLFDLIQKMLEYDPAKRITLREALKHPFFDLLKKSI
T3 sequence (Q9H2X6 1-640): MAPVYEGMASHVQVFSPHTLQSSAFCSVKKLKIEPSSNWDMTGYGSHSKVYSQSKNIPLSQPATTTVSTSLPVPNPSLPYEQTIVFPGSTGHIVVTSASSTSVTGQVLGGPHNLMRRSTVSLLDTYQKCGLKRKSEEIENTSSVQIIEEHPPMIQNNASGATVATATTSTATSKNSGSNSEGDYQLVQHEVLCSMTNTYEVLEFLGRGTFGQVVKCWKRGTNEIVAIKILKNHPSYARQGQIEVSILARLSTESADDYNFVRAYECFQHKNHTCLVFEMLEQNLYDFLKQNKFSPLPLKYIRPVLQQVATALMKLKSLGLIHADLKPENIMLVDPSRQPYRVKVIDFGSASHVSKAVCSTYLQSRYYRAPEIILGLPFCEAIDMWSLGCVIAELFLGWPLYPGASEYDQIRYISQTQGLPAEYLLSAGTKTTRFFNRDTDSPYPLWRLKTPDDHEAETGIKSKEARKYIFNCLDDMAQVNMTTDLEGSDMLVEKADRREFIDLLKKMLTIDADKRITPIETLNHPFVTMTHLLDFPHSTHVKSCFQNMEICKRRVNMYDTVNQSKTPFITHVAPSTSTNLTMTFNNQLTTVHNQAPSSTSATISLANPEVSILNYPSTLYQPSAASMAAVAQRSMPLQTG

Compound: CN(Cc1ccccc1)C1=N/C(=C\c2ccc3ncsc3c2)C(=O)N1 [Example 28, (Z)-5-(benzo[d]thiazol-6-ylmethylene)-2-(benzyl(methyl)amino)-3,5-dihydro-4H-imidazol-4-one]
- IC50 (human DYRK1A): 100 to 1000 nM
- IC50 (human CLK1): 100 to 1000 nM
- IC50 (human HIPK2): 1000 to 10000 nM

Compound: O=C1NC(NCCN2CCOCC2)=N/C1=C\c1ccc2ncsc2c1 [Example 29, (Z)-5-(benzo[d]thiazol-6-ylmethylene)-2-((2-morpholinoethyl)amino)-3,5-dihydro-4H-imidazol-4-one]
- IC50 (human DYRK1A): 100 to 1000 nM
- IC50 (human CLK1): 100 to 1000 nM
- IC50 (human HIPK2): 1000 to 10000 nM

Compound: CN(C1=N/C(=C\c2ccc3[nH]cnc3c2)C(=O)N1)c1ccccc1 [Example 30, (Z)-5-((1H-benzo[d]imidazol-5-yl)methylene)-2-(methyl(phenyl)amino)-3,5-dihydro-4H-imidazol-4-one]
- IC50 (human DYRK1A): 1000 to 10000 nM
- IC50 (human CLK1): 100 to 1000 nM
- IC50 (human HIPK2): > 10000 nM

Compound: CN(CCN1CCOCC1)C1=N/C(=C\c2ccc3ncsc3c2)C(=O)N1 [Example 32, (Z)-5-(benzo[d]thiazol-6-ylmethylene)-2-(methyl(2-morpholinoethyl)amino)-3,5-dihydro-4H-imidazol-4-one]
- IC50 (human DYRK1A): 1000 to 10000 nM
- IC50 (human CLK1): 100 to 1000 nM
- IC50 (human HIPK2): > 10000 nM

Compound: CN(CC1CC1)C1=N/C(=C\c2ccc3ncsc3c2)C(=O)N1 [Example 33, (Z)-5-(benzo[d]thiazol-6-ylmethylene)-2-((cyclopropylmethyl)(methyl)amino)-3,5-dihydro-4H-imidazol-4-one]
- IC50 (human DYRK1A): 1000 to 10000 nM
- IC50 (human CLK1): 100 to 1000 nM
- IC50 (human HIPK2): 1000 to 10000 nM

Compound: O=C1NC(N(Cc2ccccc2)c2ccccc2)=N/C1=C\c1ccc2[nH]cnc2c1 [Example 35, (Z)-5-((1H-benzo[d]imidazol-5-yl)methylene)-2-(benzyl(phenyl)amino)-3,5-dihydro-4H-imidazol-4-one]
- IC50 (human DYRK1A): 1000 to 10000 nM
- IC50 (human CLK1): 100 to 1000 nM
- IC50 (human HIPK2): > 10000 nM

Compound: NC(=O)CCN(C1=N/C(=C\c2ccc3c(c2)OCO3)C(=O)N1)c1ccccc1 [Example 36, (Z)-3-((4-(benzo[d][1,3]dioxol-5-ylmethylene)-5-oxo-4,5-dihydro-1H-imidazol-2-yl)(phenyl)amino)propanamide]
- IC50 (human DYRK1A): 100 to 1000 nM
- IC50 (human CLK1): 100 to 1000 nM
- IC50 (human HIPK2): > 10000 nM

Compound: CN(C1=N/C(=C\c2ccc3c(c2)OCO3)C(=O)N1)c1ccc(N)cc1 [Example 37, (Z)-2-((4-aminophenyl)(methyl)amino)-5-(benzo[d][1,3]dioxol-5-ylmethylene)-3,5-dihydro-4H-imidazol-4-one]
- IC50 (human DYRK1A): 1000 to 10000 nM
- IC50 (human CLK1): 1000 to 10000 nM
- IC50 (human HIPK2): > 10000 nM

Compound: COc1ccc(N(C)C2=N/C(=C\c3ccc4ncsc4c3)C(=O)N2)cc1 [Example 38, (Z)-5-(benzo[d]thiazol-6-ylmethylene)-2-((4-methoxyphenyl)(methyl)amino)-3,5-dihydro-4H-imidazol-4-one]
- IC50 (human DYRK1A): 100 to 1000 nM
- IC50 (human CLK1): 100 to 1000 nM
- IC50 (human HIPK2): 1000 to 10000 nM

Compound: O=C1NC(N(CC2CC2)c2ccccc2)=N/C1=C\c1ccc2c(c1)OCCO2 [Example 39, (Z)-2-((cyclopropylmethyl)(phenyl)amino)-5-((2,3-dihydrobenzo[b][1,4]dioxin-6-yl)methylene)-3,5-dihydro-4H-imidazol-4-one]
- IC50 (human DYRK1A): 1000 to 10000 nM
- IC50 (human CLK1): > 10000 nM
- IC50 (human HIPK2): > 10000 nM

Compound: O=C1NC(N(Cc2ccccc2)c2ccccc2)=N/C1=C\c1ccc2ncsc2c1 [Example 41, (Z)-5-(benzo[d]thiazol-6-ylmethylene)-2-(benzyl(phenyl)amino)-3,5-dihydro-4H-imidazol-4-one]
- IC50 (human DYRK1A): 100 to 1000 nM
- IC50 (human CLK1): < 100 nM
- IC50 (human HIPK2): 1000 to 10000 nM

Compound: O=C1/C(=C/c2ccc3ncsc3c2)N=C(N(Cc2ccccc2)c2ccccc2)N1Cc1ccccc1 [Example 42, (Z)-5-(benzo[d]thiazol-6-ylmethylene)-3-benzyl-2-(benzyl(phenyl)amino)-3,5-dihydro-4H-imidazol-4-one]
- IC50 (human DYRK1A): > 10000 nM
- IC50 (human CLK1): > 10000 nM
- IC50 (human HIPK2): > 10000 nM
